For assay [1], the system named is α-syn-tg mice. The experiment in a line: Immunohistochemical analysis of brain immune cells (Iba-1 microglia, GFAP astrocytes) in a mouse model of PD. It counts as in vivo. The settings on record: 5 mg/kg IP daily for four weeks. How it is done:
(§1) Five-month-old non-tg and α-syn-tg female mice were injected intra-peritoneally (IP) with either vehicle (40% captisol) or 5 mg/kg of hypoestoxide daily for four weeks. The right hemibrains were post-fixed in phosphate-buffered 4% PFA at 4° C. for neuropathological analysis, while the left hemibrains were snap-frozen and stored at −70° C. for subsequent protein and mRNA analysis.
(§2) Blind-coded sagittal brain sections were incubated with primary antibodies at 4° C. for overnight. The next day, sections were incubated with either biotinylated- or FITC-conjugated secondary antibodies and detected with avid in D-HRP HRP (ABC elite, Vector Laboratories, Burlingame, Calif.) and with Tyramide Signal Amplification Direct system (PerkinElmer, Waltham, Mass.), respectively.
(§3) To determine the neuroinflammation, neurodegeneration, accumulation of α-synuclein, and NF-κB activation, brain sections were stained with Iba-1, GFAP, TNFα, IL-1β, IL6, human α-synuclein, NF-κB, and phosphorylated-NF-κB antibodies, respectively. Sections were imaged by Olympus BX41 microscope. All immunoreactivity levels were determined by optical density analysis using Image Quant 1.43 program (NIH) except the immunoreactivity of Iba-1. The cell numbers of Iba-1-positive cells were determined per field (230 μm×184 μm) of each animal based on cell body recognition using Image Quant 1.43 program (NIH).
FIGS. 1A-1F show analysis of the numbers of brain immune cells.
A positive interactive effect of HE treatment on Iba-1 optical density (Finteraction (1, 16)=80.48, p<0.0001), numbers of microglia branches (Finteraction (1, 16)=83.25, p<0.0001), GFAP optical density (Finteraction (1, 16)=15.88, p=0.0011), and numbers of astroglial branches (Finteraction (1, 16)=4.04, p=0.0616) was confirmed by two-way ANOVA.

For assay [2], the system named is α-syn-tg mice. As to the kind of experiment: Open field and round beam behavioral tests. It counts as in vivo. The settings on record: 5 mg/kg IP daily for four weeks. How it is done: as §1
Following treatment, the mice were assessed for gait and coordination using the open field and the round beam tests. Total activity was calculated as total beam breaks in ten minutes. The impairment of gait and balance were assessed by round beam analysis. Three consecutive trials of one minute each were run in one day. The numbers of foot slippages and distance traveled were recorded. The total errors on the beam were calculated as foot slips/distance traveled.
A positive interactive effect of HE treatment on the beam break numbers (Finteraction (1, 16)=15.61, p=0.0011) and total round beam errors (Finteraction (1, 16)=8.58, p=0.0098) was confirmed by two-way ANOVA.

Assay [3] has as its system α-syn-tg mice. The experiment in a line: Neurodegeneration analysis (TH-positive striatal fibers). The format is in vivo. The settings on record: 5 mg/kg IP daily for four weeks. How it is done: as §1, §2
as §3, with “(NIH). […]” for “(NIH).”

The subject of assay [4] is NF-κB. The experiment in a line: Immunofluorescence analysis of NF-κB and phosphorylated-NF-κB in neocortex. The settings on record: 5 mg/kg IP daily for four weeks. It counts as in vivo, mice. How it is done:
as §1, §2
as §3, with “(NIH). […]” for “(NIH).”

Assay [5] relates to α-synuclein. The experiment in a line: Immunoblot analysis of α-synuclein in SDS-soluble and SDS-insoluble brain homogenate fractions. Particulars: brain homogenates of α-syn-tg mice; 5 mg/kg IP daily for four weeks. The format is in vivo. How it is done:
as §1
(§4) Brain homogenates were prepared in the lysis buffer to separate SDS-soluble and SDS-insoluble fractions. Chemiluminescence detection and analysis were performed using Versadoc XL imaging apparatus and Quantity One (Bio-rad, Hercules, Calif.).
FIGS. 3F-3G show the results of a biochemical analysis. Brain homogenates were separated into SDS-soluble and SDS-insoluble factions, and analyzed by immunoblot analysis. The levels of α-synuclein in SDS-soluble fractions from α-syn tg mice were not affected by HE administration. […] A positive interactive effect of HE treatment on the level of SDS-insoluble α-synuclein (Finteraction (1, 16)=8.68, p=0.0095) was confirmed by two-way ANOVA.

In another assay the test system is α-synuclein mRNA. As to the kind of experiment: α-synuclein mRNA levels. The format is in vivo, mice. Particulars: model of PD. How it is done:
as §1
(§5) Total mRNA was extracted from mice frontal cortex using RNeasy Lipid mini kit (Qiagen, Germantown, Md.) and reverse transcribed using SuperScript VILO cDNA synthesis kit (Life Technologies), respectively. Quantitative real-time PCR was performed using TaqMan® Fast Advanced Master Mix (Life Technologies) according to manufacturer's instructions with gene specific primers obtained from Life Technologies, such as TNFα (Mm00443258_m1), IL6 (Mm00446190_m1), IL-1β (Mm00434228_m1), and β-actin (Mm00607939_s1). Amplification of DNA products was measured by the StepOnePlus real-time PCR system (Applied Biosystems, Carlsbad, Calif.). Relative mRNA levels were calculated according to the 2-exp (ΔΔCt) method. All ΔCT values were normalized to β-actin.
Intraneuronal accumulations of α-synuclein aggregates are typical pathological features of PD. […]

Assay [6] relates to α-syn-tg mice. As to the kind of experiment: Quantitative gene expression analysis (qPCR) of pro-inflammatory cytokines. The format is in vivo. The settings on record: neocortex of α-syn-tg mice; 5 mg/kg IP daily for four weeks. How it is done:
as §1, §5
(§6) The levels of pro-inflammatory cytokines were analyzed using immunohistochemical analysis and gene expression analysis. The levels of TNFα, IL-1ß and IL6 were increased in α-syn-tg mice compared to non-tg mice. […] A positive interactive effect of HE treatment on the levels of TNFα (Finteraction (1, 16)=12.34, p=0.0029), IL-1β (Finteraction (1, 16)=11.58, p=0.0036), and IL6 (Finteraction (1, 16)=31.06, p<0.0001) was confirmed by two-way ANOVA. […] A positive interactive effect of HE treatment on the mRNA levels of TNFα (Finteraction (1, 16)=15.78, p=0.0019), IL-1β (Finteraction (1, 16)=11.65, p=0.0051), and IL6 (Finteraction (1, 16)=6.40, p=0.0264) was confirmed by two-way ANOVA.

Assay [7] has as its system α-synuclein. The experiment in a line: Immunohistochemical and immunofluorescence analysis of α-synuclein accumulation in brain sections. Particulars: 5 mg/kg IP daily for four weeks. The format is in vivo, mice. How it is done: as §1, §2, §3
To determine whether the behavioral improvements observed in the α-syn-tg mice were related to alterations of α-synuclein pathology, immunohistochemical analysis was performed for α-synuclein with brain sections from non-tg and α-syn-tg mice treated with either vehicle or HE. […]
Immunofluorescence analysis of human α-synuclein in the frontal cortex of non-tg and α-syn-tg mice treated with either vehicle or hypoestoxide was performed. […] Additionally, fluorescence intensity against human α-synuclein was analyzed in frontal cortex of the brains. Immunoreactivity against human α-synuclein was not detected in the frontal cortex of non-tg mice, but it was highly detected in the frontal cortex of α-syn-tg mice. […]

Assay [8] has as its system NF-κB. The experiment in a line: Western blot analysis of NF-κB in cytosolic and nuclear fractions of cortex homogenates. The format is in vivo, mice. The settings on record: 5 mg/kg IP daily for four weeks. How it is done:
as §1, §4
Biochemical analysis using brain homogenates from the cortex of non-tg and α-syn-tg mice was performed. Brain homogenates were separated into cytosolic and nuclear fractions by centrifugation, and each fraction was analyzed by western blot analysis. Total levels of NF-κB were not altered by HE administration in non-tg and α-syn-tg mice. […] A positive interactive effect of HE treatment on the level of phosphorylated-NF-κB (Finteraction (1, 16)=11.55, p=0.0037) was confirmed by two-way ANOVA.

The subject of assay [9] is α-syn-tg mice. As to the kind of experiment: Immunohistochemical analysis of pro-inflammatory cytokines in a mouse model of PD. It counts as in vivo. The settings on record: neocortex of α-syn-tg mice; 5 mg/kg IP daily for four weeks. How it is done: as §1, §2, §3, §6
Setting [10] is: frontal cortex of α-syn-tg mice.

As to `C=C1C(=O)C[C@H]2C[C@@H]3O[C@@]3(C)CC[C@@H]3O[C@@]3(C)C[C@@H](OC(C)=O)[C@H]1C2(C)C` [HE, hypoestoxide], in the assay on α-syn-tg mice [1] (neocortex of α-syn-tg mice), the “levels of astrogliosis (GFAP)” value is “significantly decreased” and the “numbers of microglial cells (Iba-1-positive)” value was “significantly decreased”. For the same compound, the “numbers of branches per glial cell” value with α-syn-tg mice [1] (α-syn-tg mice) is “decreased”. In addition, in the assay with α-syn-tg mice [2], the “beam break numbers (open field test)” value was “reduced these errors to levels observed in non-tg mice” and the “total round beam errors” value is reported as “reduced these errors to levels observed in non-tg mice”. Besides, in the assay on α-syn-tg mice [3], the “loss of TH-positive striatal fibers” value is “significantly decreased”. The “total levels of NF-κB (immunofluorescence)” value in the assay on NF-κB [4] (neocortex of non-tg or α-syn-tg mice) was “not changed”. The “level of phosphorylated-NF-κB (immunofluorescence)” value in the assay with NF-κB [4] (neocortex of α-syn-tg mice) is on record as “significantly decreased”. In the assay with α-synuclein [5], the “levels of SDS-insoluble α-synuclein” value is “significantly decreased” and the “levels of α-synuclein in SDS-soluble fractions” value is on record as “not affected”. Moreover, the “levels of α-synuclein mRNA” value in the assay on α-synuclein mRNA is “not affected”. Besides, in the assay with α-syn-tg mice [6], the “mRNA level of IL6” value is on record as “clearly decreased”, the “mRNA level of IL-1β” value is reported as “clearly decreased” and the “mRNA level of TNFα” value is given as “clearly decreased”. Also, in the assay with α-synuclein [7] (setting [10]), the “immunoreactivity against C-terminus human α-synuclein” value was “significantly decreased” and the “level of human α-synuclein immunoreactivity (immunofluorescence)” value is on record as “significantly decreased”. Besides, the “levels of α-synuclein in neurons and neuropil (immunohistochemical analysis)” value with α-synuclein [7] (α-syn-tg mice, frontal cortex, hippocampus, striatum) is “significantly decreased”. Further, the “total levels of NF-κB (western blot)” value with NF-κB [8] (cortex homogenates of non-tg and α-syn-tg mice) is “not altered”. For the same compound, the “level of phosphorylated NF-κB (western blot)” value in the assay with NF-κB [8] (cortex homogenates of α-syn-tg mice, nuclear fractions) is “significantly reduced”. In addition, in the assay with α-syn-tg mice [9], the “level of IL6 (immunohistochemical analysis)” value is on record as “significantly reduced”, the “level of IL-1β (immunohistochemical analysis)” value is reported as “significantly reduced” and the “level of TNFα (immunohistochemical analysis)” value was “significantly reduced”.

These data come from patent US10857122B2, “Hypoestoxide, derivatives, related compounds, and agonists thereof for treatment or prevention of neurodegenerative diseases” (Immune Modulation, Inc., priority 2015, dated 2020).
